Measurements published in patent US20090209536A1, “AMINOQUINAZOLINE CANNABINOID RECEPTOR MODULATORS FOR TREATMENT OF DISEASE” (KALYPSYS, INC., priority 2007, published 2009).

Columns and labels:
[1] = biological target: T1, human cannabinoid receptor type 2 (Homo sapiens, UniProt P34972); assay: Human CB2 Radioligand Binding Assay; conditions: competition with [3H] CP-55,940; membranes from stably transfected CHO CB2 cells; read-out: CB2 Ligand Binding Asssay EC50
T1 construct: expressed in transfected cells; membrane preparation
T1 sequence (P34972 whole entry): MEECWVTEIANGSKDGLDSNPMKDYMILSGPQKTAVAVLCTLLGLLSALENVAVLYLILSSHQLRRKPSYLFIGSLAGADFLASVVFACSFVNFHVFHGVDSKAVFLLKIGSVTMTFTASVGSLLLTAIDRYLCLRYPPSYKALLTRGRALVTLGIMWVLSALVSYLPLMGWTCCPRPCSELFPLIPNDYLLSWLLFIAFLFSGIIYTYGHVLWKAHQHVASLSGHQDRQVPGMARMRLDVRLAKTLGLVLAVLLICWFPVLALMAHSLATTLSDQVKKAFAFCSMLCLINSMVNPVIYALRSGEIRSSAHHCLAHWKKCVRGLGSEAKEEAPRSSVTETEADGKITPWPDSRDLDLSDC
Summary of the method: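 Test compounds (10 uM final, or dose-response) competed with [3H]CP-55,940, used at the Kd determined per membrane lot, for binding to stable human CB2-CHO membranes over 90 min at 30° C in pH 7.4 Tris/EGTA/MgCl2/BSA buffer. GF/C filtration then scintillation counting; 100 nM CP-55,940 defined 100% efficacy.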

[2] = biological target: T2, human cannabinoid receptor type 1 (Homo sapiens, UniProt P21554); assay: Human CB1 Radioligand Binding Assay (basis of selectivity, CB2 vs. CB1); conditions: CB1: HEK 293 EBNA cells expressing human CB1; CB2: CHO CB2 membranes
T2 construct: purchased Perkin Elmer RBHCB1M; host or cells: HEK 293 EBNA cells
T2 sequence (P21554 whole entry): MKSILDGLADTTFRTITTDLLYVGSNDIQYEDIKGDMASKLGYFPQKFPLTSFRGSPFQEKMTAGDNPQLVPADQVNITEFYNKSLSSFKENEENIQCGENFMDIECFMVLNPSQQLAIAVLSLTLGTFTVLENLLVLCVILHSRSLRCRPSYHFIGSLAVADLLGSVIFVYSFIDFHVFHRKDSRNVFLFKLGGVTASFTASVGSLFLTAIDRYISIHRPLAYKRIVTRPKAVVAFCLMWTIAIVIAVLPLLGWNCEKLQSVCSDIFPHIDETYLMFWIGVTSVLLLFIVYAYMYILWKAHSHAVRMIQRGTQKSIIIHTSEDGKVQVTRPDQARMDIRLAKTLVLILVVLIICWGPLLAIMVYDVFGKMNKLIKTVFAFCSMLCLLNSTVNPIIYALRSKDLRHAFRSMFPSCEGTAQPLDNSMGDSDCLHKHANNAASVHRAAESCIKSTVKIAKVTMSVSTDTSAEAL
Description: 2. Human CB1 Radioligand Binding Assay
The incubation buffer was composed of 50 mM Tris-HCl pH 7.4, 2.5 mM EDTA, 5 mM MgCl2, 5.0 mg/ml fatty acid free BSA and the wash buffer was composed of 50 mM Tris-HCl pH 7.4, 2.5 mM EDTA, 5 mM MgCl2, 0.5 mg/ml fatty acid free BSA.

Compound	EC50 [1] [µM]	Selectivity, CB2 vs. CB1 [2]
Cn1ccnc1C(=O)N1CCN(c2nc(-c3ccccc3Cl)nc3ccccc23)CC1 [Example 263, (4-(2-(2-chlorophenyl)quinazolin-4-yl)piperazin-1-yl)(1-methyl-1H-imidazol-2-yl)methanone]	> 1	− (− indicates ≦ 10−fold)
Clc1ccccc1-c1nc(N2CCN(c3nccs3)CC2)c2ccccc2n1 [Example 264, 2-(4-(2-(2-Chlorophenyl)quinazolin-4-yl)piperazin-1-yl)thiazole]	> 1	− (− indicates ≦ 10−fold)
CC(=O)N1CCN(c2nc(-c3ccccc3Cl)nc3cccc(Cl)c23)CC1 [Example 265, 1-(4-(5-Chloro-2-(2-chlorophenyl)quinazolin-4-yl)piperazin-1-yl)ethanone]	< 1	+ (+ indicates > 10−fold)
CCOC(=O)N1CCN(c2nc(-c3ccccc3Cl)nc3cccc(Cl)c23)CC1 [Example 266, Ethyl 4-(5-chloro-2-(2-chlorophenyl)quinazolin-4-yl)piperazine-1-carboxylate]	< 1	+ (+ indicates > 10−fold)
Clc1ccccc1-c1nc(N2CCCC2)c2c(Cl)cccc2n1 [Example 267, 5-Chloro-2-(2-chlorophenyl)-4-(pyrrolidin-1-yl)quinazoline]	< 1	+ (+ indicates > 10−fold)
CC(=O)N1CCN(c2nc(-c3ccccc3Cl)nc3ccc(F)cc23)CC1 [Example 268, 1-(4-(2-(2-Chlorophenyl)-6-fluoroquinazolin-4-yl)piperazin-1-yl)ethanone]	< 1	− (− indicates ≦ 10−fold)
CCOC(=O)N1CCN(c2nc(-c3ccccc3Cl)nc3ccc(F)cc23)CC1 [Example 269, Ethyl 4-(2-(2-chlorophenyl)-6-fluoroquinazolin-4-yl)piperazine-1-carboxylate]	< 1	+ (+ indicates > 10−fold)
Fc1ccc2nc(-c3ccccc3Cl)nc(N3CCCC3)c2c1 [Example 270, 2-(2-Chlorophenyl)-6-fluoro-4-(pyrrolidin-1-yl)quinazoline]	> 1	− (− indicates ≦ 10−fold)
CC(=O)N1CCN(c2nc(-c3ccccc3F)nc3ccc(Cl)cc23)CC1 [Example 271, 1-(4-(6-Chloro-2-(2-fluorophenyl)quinazolin-4-yl)piperazin-1-yl)ethanone]	< 1	− (− indicates ≦ 10−fold)
CCOC(=O)N1CCN(c2nc(-c3ccccc3F)nc3ccc(Cl)cc23)CC1 [Example 272, Ethyl 4-(6-chloro-2-(2-fluorophenyl)quinazolin-4-yl)piperazine-1-carboxylate]	> 1	− (− indicates ≦ 10−fold)
Fc1ccccc1-c1nc(N2CCCC2)c2cc(Cl)ccc2n1 [Example 273, 6-Chloro-2-(2-fluorophenyl)-4-(pyrrolidin-1-yl)quinazoline]	< 1	− (− indicates ≦ 10−fold)
COc1ccc2nc(-c3ccccc3F)nc(N3CCN(C(C)=O)CC3)c2c1 [Example 274, 1-(4-(2-(2-Fluorophenyl)-6-methoxyquinazolin-4-yl)piperazin-1-yl)ethanone]	< 1	− (− indicates ≦ 10−fold)
CCOC(=O)N1CCN(c2nc(-c3ccccc3F)nc3ccc(OC)cc23)CC1 [Example 275, Ethyl 4-(2-(2-fluorophenyl)-6-methoxyquinazolin-4-yl)piperazine-1-carboxylate]	> 1	+ (+ indicates > 10−fold)
COc1ccc2nc(-c3ccccc3F)nc(N3CCCC3)c2c1 [Example 276, 2-(2-Fluorophenyl)-6-methoxy-4-(pyrrolidin-1-yl)quinazoline]	> 1	− (− indicates ≦ 10−fold)
CC(=O)N1CCN(c2nc(-c3ccc(C(C)(C)C)cc3)nc3ccc(Cl)cc23)CC1 [Example 277, 1-(4-(2-(4-tert-Butylphenyl)-6-chloroquinazolin-4-yl)piperazin-1-yl)ethanone]	> 1	− (− indicates ≦ 10−fold)
CC(C)(C)c1ccc(-c2nc(N3CCCC3)c3cc(Cl)ccc3n2)cc1 [Example 278, 2-(4-tert-Butylphenyl)-6-chloro-4-(pyrrolidin-1-yl)quinazoline]	< 1	− (− indicates ≦ 10−fold)
CCOC(=O)N1CCN(c2nc(-c3ccccc3F)nc3ccccc23)CC1 [Example 279, Ethyl 4-(2-(2-fluorophenyl)quinazolin-4-yl)piperazine-1-carboxylate]	< 1	+ (+ indicates > 10−fold)

Compound	EC50 [1] [µM]	Selectivity, CB2 vs. CB1 [2]
CC(=O)N1CCN(c2nc(-c3ccccc3F)nc3cccc(F)c23)CC1 [Example 280, 1-(4-(5-Fluoro-2-(2-fluorophenyl)quinazolin-4-yl)piperazin-1-yl)ethanone]	< 1	+ (+ indicates > 10−fold)
CCOC(=O)N1CCN(c2nc(-c3ccccc3F)nc3cccc(F)c23)CC1 [Example 281, Ethyl 4-(5-fluoro-2-(2-fluorophenyl)quinazolin-4-yl)piperazine-1-carboxylate]	< 1	+ (+ indicates > 10−fold)
Fc1ccccc1-c1nc(N2CCCC2)c2c(F)cccc2n1 [Example 282, 5-Fluoro-2-(2-fluorophenyl)-4-(pyrrolidin-1-yl)quinazoline]	< 1	+ (+ indicates > 10−fold)
CC(C)CC(=O)N1CCN(c2nc(-c3ccccc3Cl)nc3cccc(Cl)c23)CC1 [Example 283, 1-(4-(5-Chloro-2-(2-chlorophenyl)quinazolin-4-yl)piperazin-1-yl)-3-methylbutan-1-one]	> 1	− (− indicates ≦ 10−fold)
CCCNC(=O)N1CCN(c2nc(-c3ccccc3Cl)nc3cccc(Cl)c23)CC1 [Example 284, 4-(5-Chloro-2-(2-chlorophenyl)quinazolin-4-yl)-N-propylpiperazine-1-carboxamide]	> 1	− (− indicates ≦ 10−fold)
CCCS(=O)(=O)N1CCN(c2nc(-c3ccccc3Cl)nc3cccc(Cl)c23)CC1 [Example 285, 5-Chloro-2-(2-chlorophenyl)-4-(4-(propylsulfonyl)piperazin-1-yl)quinazoline]	> 1	− (− indicates ≦ 10−fold)
CCOC(=O)N1CCN(c2nc(Nc3ccccc3)nc3cc(C(C)(C)C)ccc23)CC1 [Example 286, Ethyl 4-(7-tert-butyl-2-(phenylamino)quinazolin-4-yl)piperazine-1-carboxylate]	< 1	+ (+ indicates > 10−fold)
CC(C)(C)c1ccc2c(N3CCCC3)nc(Nc3ccccc3)nc2c1 [Example 287, 7-tert-Butyl-N-phenyl-4-(pyrrolidin-1-yl)quinazolin-2-amine]	< 1	+ (+ indicates > 10−fold)
CC(C)(C)c1ccc2c(N3CCCC3)nc(Nc3ccc(F)cc3F)nc2c1 [Example 288, 7-tert-Butyl-N-(2,4-difluorophenyl)-4-(pyrrolidin-1-yl)quinazolin-2-amine]	< 1	+ (+ indicates > 10−fold)
CC(C)(C)c1ccc2c(N3CCCC3)nc(Nc3ccc(F)c(F)c3)nc2c1 [Example 289, 7-tert-Butyl-N-(3,4-difluorophenyl)-4-(pyrrolidin-1-yl)quinazolin-2-amine]	< 1	− (− indicates ≦ 10−fold)
CC(C)(C)c1ccc2c(N3CCCC3)nc(Nc3cccc(Cl)c3)nc2c1 [Example 290, 7-tert-Butyl-N-(3-chlorophenyl)-4-(pyrrolidin-1-yl)quinazolin-2-amine]	< 1	+ (+ indicates > 10−fold)
O=S(=O)(NCc1nc(N2CCOCC2)c2ccccc2n1)c1ccc(Cl)cc1Cl [Example 294, 2,4-Dichloro-N-((4-morpholinoquinazolin-2-yl)methyl)benzenesulfonamide]	> 1	− (− indicates ≦ 10−fold)
COc1cc2nc(Oc3ccc(C(C)(C)C)cc3)nc(N3CCCC3)c2cc1OC [Example 296, 2-(4-tert-Butylphenoxy)-6,7-dimethoxy-4-(pyrrolidin-1-yl)quinazoline]	> 1	− (− indicates ≦ 10−fold)
COc1ccc(Oc2nc(N3CCCC3)c3cc(OC)c(OC)cc3n2)cc1 [Example 297, 6,7-Dimethoxy-2-(4-methoxyphenoxy)-4-(pyrrolidin-1-yl)quinazoline]	> 1	− (− indicates ≦ 10−fold)
COc1cc2nc(Nc3ccc(C(C)(C)C)cc3)nc(N3CCCC3)c2cc1OC [Example 298, N-(4-tert-butylphenyl)-6,7-dimethoxy-4-(pyrrolidin-1-yl)quinazolin-2-amine]	> 1	− (− indicates ≦ 10−fold)
O=S(=O)(NCc1nc(N2CCCC2)c2ccccc2n1)c1ccc2ccccc2c1 [Example 299, N-((4-(Pyrrolidin-1-yl)quinazolin-2-yl)methyl)naphthalene-2-sulfonamide]	> 1	+ (+ indicates > 10−fold)
O=S(=O)(NCc1nc(N2CCOCC2)c2ccccc2n1)c1cccc2ccccc12 [Example 300, N-((4-Morpholinoquinazolin-2-yl)methyl)naphthalene-1-sulfonamide]	< 1	+ (+ indicates > 10−fold)
